pIC50: −log10 of the molar value.
Each compound was assayed against Galactokinase (Homo sapiens, UniProt P51570) (assay: Inhibition of recombinant human GALK1 using galactose as substrate incubated for 1 hrs in the presence of ATP by Kinase-Glo reagent based luminescence assay).
Chain of Galactokinase (P51570 whole entry): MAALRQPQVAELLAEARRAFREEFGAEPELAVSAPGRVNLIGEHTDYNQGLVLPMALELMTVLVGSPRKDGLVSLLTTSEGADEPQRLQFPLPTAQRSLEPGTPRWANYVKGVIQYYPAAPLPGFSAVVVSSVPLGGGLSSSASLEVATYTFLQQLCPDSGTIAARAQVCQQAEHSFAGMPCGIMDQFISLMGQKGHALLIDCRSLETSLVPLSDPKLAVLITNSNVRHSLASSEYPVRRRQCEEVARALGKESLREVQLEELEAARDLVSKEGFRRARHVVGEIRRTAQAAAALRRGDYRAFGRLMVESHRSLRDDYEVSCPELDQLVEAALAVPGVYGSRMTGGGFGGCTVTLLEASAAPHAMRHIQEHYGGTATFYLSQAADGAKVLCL

In order of rising pIC50:
1. CC1=C(C(=O)NCc2ccccc2O)C(c2ccccc2Cl)N=C(Nc2nc3ccccc3o2)N1 (stereo not drawn)  5.20
2. CC1=C(C(=O)Nc2cc(C(=O)O)ccn2)C(c2ccccc2Cl)N=C(Nc2nc3cc(F)ccc3o2)N1 (stereo not drawn)  5.50
3. CC1=C(C(=O)NCc2cncn2C)C(c2ccccc2Cl)N=C(Nc2nc3ccccc3o2)N1 (stereo not drawn)  5.80

Reference: BindingDB's records for PubMed 34491744 (National Center For Advancing Translational Sciences, 2021)
